What all share (test): CXCR6 receptor antagonists, dose response, cell-based, beta-arrestin, DiscoveRx, APJ panel, uHTS hits (AID 624129)
In test [1] the target is Apelin receptor (Homo sapiens) (UniProt P35414). The settings on record: CXCR6 beta-arrestin (DiscoveRx) antagonist cell assay, APJ.
Test [2] addresses Beta-galactosidase (Escherichia coli) (UniProt Q8VNN2). The settings on record: CXCR6 beta-arrestin (DiscoveRx) antagonist cell assay, b-galactosidase.
Test [3] deals with C-C chemokine receptor type 6 (Homo sapiens) (UniProt P51684). The settings on record: CXCR6 beta-arrestin (DiscoveRx) antagonist cell assay.
Test [4] addresses C-X-C chemokine receptor type 6 (Homo sapiens) (UniProt O00574). The settings on record: CXCR6 beta-arrestin (DiscoveRx) antagonist cell assay; for inhibition: CXCR6, run 1, dose range 2, at 80 µM (top of the series).
Where [5] appears, read: dose range 1, mean IC50 across replicates.
Where [6] appears, read: CCR6, dose range 1, mean IC50 across replicates.
Setting [7] is: CXCR6, dose range 1, mean IC50 across replicates.

Activity calls are given as the source filed them. How the calls were made is not given here. Some results are limits rather than exact numbers.

Sequence of C-X-C chemokine receptor type 6 (Homo sapiens) (O00574 whole entry, looked up): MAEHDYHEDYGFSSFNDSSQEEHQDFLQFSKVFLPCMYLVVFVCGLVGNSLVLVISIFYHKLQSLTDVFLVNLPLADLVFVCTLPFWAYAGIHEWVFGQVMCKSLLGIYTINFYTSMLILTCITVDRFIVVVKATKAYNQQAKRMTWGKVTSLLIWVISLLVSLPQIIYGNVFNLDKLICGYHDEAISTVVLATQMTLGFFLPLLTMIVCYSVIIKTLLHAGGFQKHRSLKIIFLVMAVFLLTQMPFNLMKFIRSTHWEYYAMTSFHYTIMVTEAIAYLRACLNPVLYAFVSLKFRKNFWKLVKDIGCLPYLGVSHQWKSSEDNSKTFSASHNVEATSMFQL
Sequence of Beta-galactosidase (Escherichia coli) (Q8VNN2 whole entry, looked up): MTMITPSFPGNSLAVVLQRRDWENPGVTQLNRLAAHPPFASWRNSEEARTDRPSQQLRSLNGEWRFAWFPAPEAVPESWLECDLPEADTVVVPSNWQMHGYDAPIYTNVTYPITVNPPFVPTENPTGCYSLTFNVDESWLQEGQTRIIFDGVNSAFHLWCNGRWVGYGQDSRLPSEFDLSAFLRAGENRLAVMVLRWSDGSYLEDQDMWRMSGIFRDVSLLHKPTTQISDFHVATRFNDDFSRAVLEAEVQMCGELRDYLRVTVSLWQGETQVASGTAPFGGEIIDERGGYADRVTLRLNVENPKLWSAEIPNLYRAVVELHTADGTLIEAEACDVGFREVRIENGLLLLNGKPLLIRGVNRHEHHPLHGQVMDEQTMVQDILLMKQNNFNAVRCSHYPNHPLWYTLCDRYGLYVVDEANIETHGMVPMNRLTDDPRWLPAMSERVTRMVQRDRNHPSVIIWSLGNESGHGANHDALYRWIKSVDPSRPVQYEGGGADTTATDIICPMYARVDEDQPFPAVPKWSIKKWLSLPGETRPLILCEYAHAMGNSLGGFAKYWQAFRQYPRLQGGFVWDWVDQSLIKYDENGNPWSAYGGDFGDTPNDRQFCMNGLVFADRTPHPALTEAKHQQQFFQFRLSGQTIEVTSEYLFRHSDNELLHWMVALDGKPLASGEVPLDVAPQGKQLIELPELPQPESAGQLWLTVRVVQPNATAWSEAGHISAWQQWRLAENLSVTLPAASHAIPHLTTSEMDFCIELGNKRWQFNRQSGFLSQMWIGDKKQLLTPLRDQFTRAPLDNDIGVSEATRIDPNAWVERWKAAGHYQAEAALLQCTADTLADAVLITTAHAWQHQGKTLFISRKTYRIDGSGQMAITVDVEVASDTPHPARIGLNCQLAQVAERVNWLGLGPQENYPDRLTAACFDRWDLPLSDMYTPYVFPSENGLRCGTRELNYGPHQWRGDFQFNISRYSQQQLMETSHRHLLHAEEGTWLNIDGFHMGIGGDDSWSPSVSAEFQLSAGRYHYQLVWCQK

A word on the IC50: it is the concentration needed to halve the response being measured. Broadly, the inhibition is the relative decrease from the control value, in per cent. For `CCO[C@@H]1OC(C(=O)N2CCN(Cc3ccccc3)CC2)=C[C@H](c2ccc(Br)cc2)[C@H]1CCCO`, the IC50 is 16.6 µM in test [1] (dose range 1); 19.4 µM in test [1] (setting [5]); 21.1 µM in test [1] (run 2, dose range 1); 20.4 µM in test [1] (run 3, dose range 1); > 80 µM (inactive) in test [2] (dose range 1); over 80 µM in test [2] (setting [5]). Further, the 50% inhibitory concentration (IC50) is 11.4 µM in test [3] (CCR6, dose range 1); 11.5 µM in test [3] (setting [6]); 11.6 µM in test [3] (CCR6, run 2, dose range 1); 12.1 µM in test [4] (setting [7]); 9.21 µM in test [4] (CXCR6, run 2, dose range 1). The IC50 entry in test [4] (CXCR6, dose range 1) was “inactive”. The inhibition in test [4] turned out to be 126%.
`O=[N+]([O-])c1ccc(S(=O)(=O)c2ccccc2)nc1`: the IC50 was over 80 µM in test [1] (setting [5]); over 80 µM in test [1] (run 2, dose range 1); over 80 µM in test [1] (run 3, dose range 1); > 80 µM (inactive) in test [2] (dose range 1); over 80 µM in test [2] (setting [5]); over 80 µM in test [3] (setting [6]). Moreover, the IC50 in test [3] (CCR6, run 2, dose range 1) was over 80 µM; in test [4] (CXCR6, dose range 1) it was > 80 µM (inactive); in test [4] (setting [7]) it was over 80 µM; in test [4] (CXCR6, run 2, dose range 1), over 80 µM. Moreover, the inhibition in test [4] stood at 19.8%.
Turning to `CC(C)c1ccc(O)c(NC(=S)NC(=O)c2cccnc2)c1`, the concentration for half-maximal inhibition (IC50) in test [1] (dose range 1) is 8.65 µM; in test [1] (setting [5]), 9.87 µM; in test [1] (run 2, dose range 1), 10.6 µM; in test [1] (run 3, dose range 1), 10.4 µM; in test [2] (setting [5]), 51.9 µM; in test [3] (CCR6, dose range 1), 10.6 µM. Besides, the IC50 came out at 10 µM in test [3] (setting [6]); 9.43 µM in test [3] (CCR6, run 2, dose range 1); 14.9 µM in test [4] (setting [7]); 12.7 µM in test [4] (CXCR6, run 1, dose range 2); 20.7 µM in test [4] (CXCR6, run 2, dose range 1); 8.67 µM in test [4] (CXCR6, run 2, dose range 2). In addition, the IC50 result in test [2] (dose range 1) was “inactive”; in test [4] (CXCR6, dose range 1), “inactive”.
For the compound `C=C1C(=O)O[C@@H]2C[C@@H](C)[C@@H]3C=CC(=O)[C@@]3(C)[C@@H](OC(=O)CC(=O)O[C@H]3[C@@H]4C(=C)C(=O)O[C@@H]4C[C@@H](C)[C@@H]4C=CC(=O)[C@]43C)[C@H]12`, the 50% inhibitory concentration (IC50) in test [1] (dose range 1) is 4.62 µM; in test [1] (setting [5]), 4.97 µM; in test [1] (run 2, dose range 1) it was 5.28 µM; in test [1] (run 3, dose range 1) it was 5.02 µM; in test [2] (dose range 1), > 80 µM (inactive); in test [2] (setting [5]) it was over 80 µM. For the same compound, the half-inhibitory concentration (IC50) in test [3] (CCR6, dose range 1) was 3.11 µM; in test [3] (setting [6]), 3.35 µM; in test [3] (CCR6, run 2, dose range 1), 3.59 µM; in test [4] (CXCR6, dose range 1), 4.65 µM; in test [4] (setting [7]), 3.94 µM; in test [4] (CXCR6, run 1, dose range 2), 3.8 µM. Also, the IC50 in test [4] (CXCR6, run 2, dose range 1) turned out to be 4.03 µM; in test [4] (CXCR6, run 2, dose range 2), 3.28 µM.
In the case of `O=[N+]([O-])c1cc([N+](=O)[O-])c2cc3ccccc3nc2c1`, the IC50 in test [1] (setting [5]) was over 80 µM; in test [1] (run 2, dose range 1), over 80 µM; in test [1] (run 3, dose range 1), over 80 µM; in test [2] (dose range 1) it was > 80 µM (inactive); in test [2] (setting [5]) it was over 80 µM; in test [3] (setting [6]) it was over 80 µM. The 50% inhibitory concentration (IC50) is over 80 µM in test [3] (CCR6, run 2, dose range 1); > 80 µM (inactive) in test [4] (CXCR6, dose range 1); over 80 µM in test [4] (setting [7]); over 80 µM in test [4] (CXCR6, run 2, dose range 1). In addition, the inhibition in test [4] is -64.9%.
Take `O=C(CSc1nc(-c2ccco2)cc(C(F)(F)F)n1)NCCCn1ccnc1`: the IC50 was 20.7 µM in test [1] (dose range 1); 21.4 µM in test [1] (setting [5]); 22.8 µM in test [1] (run 2, dose range 1); 20.7 µM in test [1] (run 3, dose range 1); > 80 µM (inactive) in test [2] (dose range 1); over 80 µM in test [2] (setting [5]). Further, the IC50 in test [3] (CCR6, dose range 1) is 17.6 µM; in test [3] (setting [6]), 19.3 µM; in test [3] (CCR6, run 2, dose range 1) it was 21.1 µM; in test [4] (setting [7]), 16.9 µM; in test [4] (CXCR6, run 2, dose range 1), 18.3 µM. Also, the IC50 entry in test [4] (CXCR6, dose range 1) was “inactive”. Moreover, the inhibition in test [4] amounted to 126%.
In the case of `Nc1cc(Cl)c2nonc2c1[N+](=O)[O-]`, the concentration for half-maximal inhibition (IC50) is 10.8 µM in test [1] (dose range 1); 20.6 µM in test [1] (setting [5]); 13.5 µM in test [1] (run 2, dose range 1); 37.6 µM in test [1] (run 3, dose range 1); > 80 µM (inactive) in test [2] (dose range 1); over 80 µM in test [2] (setting [5]). Also, the half-inhibitory concentration (IC50) in test [3] (CCR6, dose range 1) was 5.46 µM; in test [3] (setting [6]), 7.31 µM; in test [3] (CCR6, run 2, dose range 1) it was 9.16 µM; in test [4] (CXCR6, dose range 1), 11.5 µM; in test [4] (setting [7]), 8.28 µM; in test [4] (CXCR6, run 1, dose range 2) it was 7.05 µM. In addition, the IC50 is 7.17 µM in test [4] (CXCR6, run 2, dose range 1) and 7.35 µM in test [4] (CXCR6, run 2, dose range 2).
`Cc1ccc(CN2C(=O)C(Cc3ccccc3)Nc3ncnc(N4CCN(c5ccccc5)CC4)c32)cc1` (centres undefined): the IC50 in test [1] (dose range 1) is 3.71 µM; in test [1] (setting [5]), 4.54 µM; in test [1] (run 2, dose range 1), 5.03 µM; in test [1] (run 3, dose range 1), 4.88 µM; in test [2] (dose range 1), 3.65 µM; in test [2] (setting [5]), 3.65 µM. The IC50 in test [3] (CCR6, dose range 1) was 2.72 µM; in test [3] (setting [6]), 2.47 µM; in test [3] (CCR6, run 2, dose range 1), 2.23 µM; in test [4] (CXCR6, dose range 1), 3.59 µM; in test [4] (setting [7]) it was 2.93 µM; in test [4] (CXCR6, run 1, dose range 2), 2.45 µM. Also, the half-inhibitory concentration (IC50) was 2.76 µM in test [4] (CXCR6, run 2, dose range 1) and 2.93 µM in test [4] (CXCR6, run 2, dose range 2).

The values above are taken from PubChem BioAssay AID624129 (Sanford-Burnham Center for Chemical Genomics, 2012).
